Data published in PubChem BioAssay (NCI).
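Five compound concentrations were applied to cells in 96-well plates for 48 hours; endpoints were derived by simple linear interpolation of the resulting dose-response curve. At the GI50, growth is halved. TGI: concentration producing complete growth inhibition.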

What was measured:
Assay in all cases: NCI-60 cell line screen, 48 h
UO-31 renal = tested on: UO-31 renal
TK-10 renal = tested on: TK-10 renal
EKVX NSCLC = tested on: EKVX NSCLC
RXF 393 renal = tested on: RXF 393 renal
SNB-19 CNS = tested on: SNB-19 CNS
OVCAR-5 ovarian = tested on: OVCAR-5 ovarian
SK-MEL-28 melanoma = tested on: SK-MEL-28 melanoma
UACC-62 melanoma = tested on: UACC-62 melanoma
HCC-2998 colon = tested on: HCC-2998 colon
RPMI-8226 leukemia = tested on: RPMI-8226 leukemia

Row | SMILES | GI50 (UO-31 renal) [µM] | TGI (UO-31 renal) [µM] | GI50 (TK-10 renal) [µM] | TGI (TK-10 renal) [µM] | GI50 (EKVX NSCLC) [µM] | TGI (EKVX NSCLC) [µM] | GI50 (RXF 393 renal) [µM] | TGI (RXF 393 renal) [µM] | GI50 (SNB-19 CNS) [µM] | TGI (SNB-19 CNS) [µM] | GI50 (OVCAR-5 ovarian) [µM] | TGI (OVCAR-5 ovarian) [µM] | GI50 (SK-MEL-28 melanoma) [µM] | TGI (SK-MEL-28 melanoma) [µM] | GI50 (UACC-62 melanoma) [µM] | TGI (UACC-62 melanoma) [µM] | GI50 (HCC-2998 colon) [µM] | TGI (HCC-2998 colon) [µM] | GI50 (RPMI-8226 leukemia) [µM] | TGI (RPMI-8226 leukemia) [µM]
1 | O=C(NCCOCCOCCNc1cccc2c1C(=O)N(C1CCCNC1=O)C2=O)c1cc2c(o1)C(=O)c1ccccc1C2=O (stereo not drawn) | 2.03 | 4.9 | 3.39 | 7.14 | 2.88 | 10.1 | 1.8 | 3.99 | 2.42 | 9.84 | 1.77 | 3.19 | 2.31 | 4.61 | 1.37 | 2.99 | 2.01 | 4.02 | 3.29 | 14.1
2 | CCOc1cccc(/C=N/NC(=O)c2ccccc2Nc2ccnc(C(F)(F)F)c2)c1O | 0.303 | – | 0.567 | > 100 | 0.404 | > 100 | 11.5 | > 100 | 2.04 | > 100 | 5.39 | > 100 | 1.37 | 98.3 | 0.407 | 14.7 | 0.398 | > 44.2 | 0.332 | –
3 | COc1ccc(/C(=C2\O[C@@H]([C@H]3COC(C)(C)O3)[C@H]3OC(C)(C)O[C@@H]23)c2cc(OC)c(OC)c(OC)c2)cc1O | 7.53 | 77.8 | 23.4 | 61.4 | 55.7 | > 100 | 2.12 | 5.89 | 4.28 | > 100 | > 100 | > 100 | 5.45 | > 100 | 57.9 | > 100 | 13.2 | > 100 | 4.63 | > 100
4 | C=C(CN1CCc2ccccc2C1)c1ccc(C(=O)Nc2cnccn2)cc1 | 24.4 | > 100 | 86.3 | > 100 | 52.8 | > 100 | 39 | > 100 | 51.1 | > 100 | > 100 | > 100 | 25.4 | > 100 | 44 | > 100 | 36.1 | > 100 | 3.35 | 10.3
5 | O=C(Nc1ccc(N2CCNCC2)cc1)c1[nH]ncc1Nc1cc(Oc2ccccc2)ncn1 | 1.7 | 3.36 | 2.07 | 4.67 | 1.99 | 6.79 | 1.75 | 3.33 | 3.19 | 12.5 | 1.78 | 4.24 | 2.26 | 5.75 | 2.15 | 4.96 | 1.95 | 4.2 | 1.5 | 3.88
6 | CC1CCC2(C(=O)O)CCC3(C)C(=CCC4C5(C)CC(O)C(O)C(C)(CO)C5C(O)CC43C)C2C1C (stereo not drawn) | – | > 100 | – | > 100 | – | > 100 | – | > 64.1 | – | 56.1 | – | > 100 | – | 69 | – | 47.5 | – | > 100 | – | 80.4
7 | COc1cc(OC)cc(-c2ccc(-c3ccc(C(=N)N)o3)o2)c1 | 2.67 | 9.16 | 13.4 | 26.5 | 5.09 | 18.5 | 1.93 | 5.24 | 3.02 | 10.6 | 2.34 | 5.25 | 1.82 | 3.67 | 1.96 | 3.98 | 2.05 | 3.94 | 2.25 | 5.68
8 | Cn1cc(-c2cnc3ccc(NC(=O)Nc4ccc(F)c(Br)c4)cc3n2)cn1 | 1.42 | 3.07 | 2.09 | 5.5 | 2.55 | 7.96 | 1.73 | 4.67 | 2.66 | 10.4 | 1.94 | 4.53 | 1.9 | 3.76 | 1.68 | 3.74 | 1.79 | 3.5 | 1.25 | 3.82
9 | Cc1ccc(CS/C(=C\c2ccc([N+](=O)[O-])cc2)C(=O)c2ccc(F)cc2)cc1 | 2.72 | 13.3 | 15.1 | 32.2 | 4.72 | 24 | 13 | 31.8 | 1.98 | 4.36 | 2.6 | 9.01 | 5.46 | 26.5 | 2.46 | 8.77 | 2.73 | 8.42 | 0.458 | 3.51
10 | COC(=O)C(=O)C(C(=O)C=C(C)C)C(=O)C(=O)Nc1cc(C(F)(F)F)ccc1Cl (stereo not drawn) | – | > 100 | – | > 100 | – | > 100 | – | > 100 | – | > 100 | – | > 100 | – | > 100 | – | > 100 | – | > 100 | – | 67
11 | O=C(O)CCCCC(CCSCc1ccccc1)SCc1ccccc1 (stereo not drawn) | 30.9 | > 100 | > 73.4 | > 100 | 40.3 | > 100 | 27.3 | > 100 | 42.9 | > 100 | > 100 | > 100 | 45.1 | > 100 | 21.5 | 60.9 | 34.8 | > 100 | 30.6 | 96.7
12 | Cc1cc(I)cc(CNCCCN2CCSCC2)c1O | 14.3 | 41.8 | 14.2 | 29.3 | 19.1 | 50.3 | 11.1 | 24.1 | 18.4 | 41 | 15.9 | 41.7 | 17 | 32.4 | 12.7 | 30.9 | 12.7 | 26.9 | 12.4 | 30.8
13 | O=C1c2c(c3c4ccccc4n(CCCCCCBr)c3c3[nH]c4ccccc4c23)C(=O)N1O | 2.11 | 10.1 | 3.13 | 11.7 | 2.58 | 9.57 | 3.32 | 14.5 | 4.98 | 21.5 | 3.22 | 17.4 | 2.95 | 15.7 | 1.69 | 4.42 | 2.87 | 12.5 | 1.92 | 5.57
